Results published in publication PMC12216609, “Inhibitors of eIF1A-ribosome interaction unveil uORF-dependent regulation of translation initiation and antitumor and antiviral effects” (The EMBO Journal, 2025).
“And” between values parts separate entries of the source, which are not always exact repeats. Equal entries are not always repeated. Where two headings read alike, the source gives them in different places.

Assays:
eIF1A without CTT = molecular target: T1, eIF1A without CTT (Homo sapiens, UniProt P47813); type: binding; conditions: for fluorescence ratio, eIF1A Δ CTT: background-corrected, relative to DMSO or lowest 1Ai concentration, replicate columns
T1 construct: His-bdSUMO (cleaved yes); made in house; host or cells: E. coli (BL-21)
T1 sequence (P47813 1-114 limits assumed): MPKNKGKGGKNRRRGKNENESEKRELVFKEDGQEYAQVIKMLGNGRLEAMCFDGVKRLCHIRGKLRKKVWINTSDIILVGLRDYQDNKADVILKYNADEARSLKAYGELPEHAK

eIF1A without NTT = molecular target: T2, eIF1A without NTT (Homo sapiens, UniProt P47813); test: Fluorescence binding assay with NTT-truncated eIF1A; conditions: for fluorescence ratio, eIF1A Δ NTT: background-corrected, relative to DMSO or lowest 1Ai concentration, replicate columns
T2 construct: His-bdSUMO (cleaved yes); made in house; host or cells: E. coli (BL-21)
T2 sequence (P47813 31-144 limits assumed): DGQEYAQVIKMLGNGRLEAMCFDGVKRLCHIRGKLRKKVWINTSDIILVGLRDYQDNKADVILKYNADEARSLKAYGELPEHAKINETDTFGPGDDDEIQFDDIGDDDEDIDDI

[1] = tested on: CUG/GUG vs AUG start codon luciferase reporters in HEK293T cells; test: Near-cognate AUG starting codon fidelity reporter assay (GUG, CUG vs AUG); type: cell-based; conditions: for CUG vs AUG (%): CUG start codon reporter relative to AUG reporter (AUG = 100); for CUG vs AUG (%) / GUG vs AUG (%): single-experiment calculation; for GUG vs AUG (%): GUG start codon reporter relative to AUG reporter (AUG = 100); for average CUG and GUG / average CUG and GUG relative to DMSO / CUG Average / GUG Average: NUG experiment; for CUG Average: CUG vs AUG reporter; for GUG Average: GUG vs AUG reporter; for NUG (Final data, Fig. 1E): average CUG and GUG relative to DMSO, 20 µM overnight; for GUG vs AUG data (%): individual repeat; for GUG vs AUG (%) Average: summary average of repeats, DMSO control average […]
[2] = eIF1A Δ CTT, from the titration data, read-out: IC50 (eIF1A Δ CTT titration block)
[3] = summary table, fluorescence binding assay, read-out: IC50 concentration (µM), CTT truncation
[4] = eIF1A Δ NTT, from the titration data, read-out: IC50 (eIF1A Δ NTT titration block)
[5] = summary table, fluorescence binding assay, read-out: IC50 concentration (µM), NTT truncation
[6] = compound at 20uM (summary head)
[7] = 1Ai conc. 0.5 uM, listed as 5662

Row | SMILES | fluorescence ratio, eIF1A Δ CTT (eIF1A without CTT; 1Ai conc. 0.25 uM) | fluorescence ratio, eIF1A Δ CTT (eIF1A without CTT; 1Ai conc. 1 uM) | fluorescence ratio, eIF1A Δ CTT (eIF1A without CTT; 1Ai conc. 2 uM) | fluorescence ratio, eIF1A Δ CTT (eIF1A without CTT; 1Ai conc. 4 uM) | fluorescence ratio, eIF1A Δ CTT (eIF1A without CTT; 1Ai conc. 8 uM) | fluorescence ratio, eIF1A Δ CTT (eIF1A without CTT; 1Ai conc. 16 uM) | fluorescence ratio, eIF1A Δ CTT (eIF1A without CTT; 1Ai conc. 32 uM) | fluorescence ratio, eIF1A Δ CTT (eIF1A without CTT; 1Ai conc. 64 uM) | fluorescence ratio, eIF1A Δ CTT (eIF1A without CTT; 1Ai conc. 256 uM) | fluorescence ratio, eIF1A Δ NTT (eIF1A without NTT; 1Ai conc. 0.25 uM) | fluorescence ratio, eIF1A Δ NTT (eIF1A without NTT; 1Ai conc. 0.5 uM) | fluorescence ratio, eIF1A Δ NTT (eIF1A without NTT; 1Ai conc. 1 uM) | fluorescence ratio, eIF1A Δ NTT (eIF1A without NTT; 1Ai conc. 2 uM) | fluorescence ratio, eIF1A Δ NTT (eIF1A without NTT; 1Ai conc. 4 uM) | fluorescence ratio, eIF1A Δ NTT (eIF1A without NTT; 1Ai conc. 8 uM) | fluorescence ratio, eIF1A Δ NTT (eIF1A without NTT; 1Ai conc. 16 uM) | fluorescence ratio, eIF1A Δ NTT (eIF1A without NTT; 1Ai conc. 32 uM) | fluorescence ratio, eIF1A Δ NTT (eIF1A without NTT; 1Ai conc. 64 uM) | fluorescence ratio, eIF1A Δ NTT (eIF1A without NTT; 1Ai conc. 256 uM) | average CUG and GUG [1] | also measured
1 | COc1cccc(Nc2nc(-c3ccc(NC(C)=O)cc3)c(C)s2)c1 [1Ai-1869] | 0.6232 and 0.681 | 0.6117 and 0.6127 | 0.4666 and 0.4698 | 0.4763 and 0.4603 | 0.4568 and 0.3937 | 0.3246 and 0.3079 | 0.1925 and 0.219 | 0.1778 and 0.2 | 0.2104 and 0.2095 | 1 | 0.9867 | 1.085 | 0.9841 | 0.9947 | 0.9125 | 0.8674 | 0.7984 | 0.7082 | 0.6737 | 3.262 | fluorescence ratio, eIF1A Δ CTT (eIF1A without CTT; 1Ai conc. 0.5 uM): 0.6378 and 0.5984; IC50 (eIF1A without CTT; [2]): 5.75 µM; IC50 (eIF1A without CTT; [3]): 5.7 µM; IC50 (eIF1A without NTT; [4]): 21.3 µM; IC50 (eIF1A without NTT; [5]): 21.3 µM; CUG vs AUG (%) ([1]; compound at 5uM (summary head)): 5.139%; GUG vs AUG (%) ([1]; compound at 5uM (summary head)): 1.3841%; average CUG and GUG relative to DMSO [1]: 0.7232; CUG Average [1]: 5.139; GUG Average [1]: 1.3841; NUG (Final data, Fig. 1E) [1]: 0.723; GUG vs AUG data (%) ([1]; compound at 5uM): 2.01% and 1.38%; GUG vs AUG (%) Average ([1]; compound at 5uM): 1.70%
2 | CN1CCN(S(=O)(=O)c2ccc(N3Cc4cc5c(cc4C4(CCCC4)C3)OCCO5)nc2)CC1 [1Ai-3564] | 1.127 and 1.051 | 1.087 and 1.0877 | 1.109 and 1.056 | 1.011 and 1.035 | 0.8478 and 0.8594 | 0.8634 and 0.8337 | 0.9829 and 0.8523 | 1.0625 and 1.083 | 1.108 and 1.021 | 1 | 1.007 | 0.9932 | 1.2 | 1.048 | 1.009 | 1.298 | 1.4 | 1.423 | 1.807 | 6.96 | binding to CTT-truncated eIF1A (eIF1A without CTT): compromised; fluorescence ratio, eIF1A Δ CTT (eIF1A without CTT; 1Ai conc. 0.5 uM): 1.14 and 1.091; CTT truncation IC50 (eIF1A without CTT; eIF1A without CTT): No binding; IC50 concentration (µM), CTT truncation (eIF1A without CTT; summary table, fluorescence binding assay): No binding; IC50 (eIF1A without NTT; [4]): 43.2 µM; IC50 (eIF1A without NTT; [5]): 43.2 µM; average CUG and GUG relative to DMSO [1]: 1.543; CUG Average [1]: 10.8773; GUG Average [1]: 3.042; NUG (Final data, Fig. 1E) [1]: 1.543; GUG vs AUG data (%) ([1]; compound at 20uM): 2.43% and 3.12% and 4.52% and 2.10%; GUG vs AUG (%) Average ([1]; compound at 20uM): 3.04%
3 | Cc1ccc(C(=O)c2cc(O)c(O)c([N+](=O)[O-])c2)cc1 [1Ai-5576] | 0.7373 and 0.785 | 0.744 and 0.7009 | 0.6013 and 0.6558 | 0.5053 and 0.5218 | 0.4227 and 0.4252 | 0.332 and 0.3364 | 0.26 and 0.2352 | 0.208 and 0.1745 | 0.1973 and 0.1667 | 0.8023 and 0.892 | 0.7712 and 0.8267 | 0.7599 and 0.8722 | 0.7825 and 0.8608 | 0.6215 and 0.8636 | 0.5932 and 0.9091 | 0.5932 and 0.7358 | 0.5395 and 0.6733 | 0.7175 and 0.7159 | 0.4605 and 0.6165 | 6.465 | fluorescence ratio, eIF1A Δ CTT (eIF1A without CTT; 1Ai conc. 0.5 uM): 0.8173 and 0.7741; IC50 (eIF1A without CTT; [2]): 5.38 µM; IC50 (eIF1A without CTT; [3]): 5.4 µM; binding to NTT-truncated eIF1A (eIF1A without NTT): significantly decreased; CUG vs AUG (%) [1, 6]: 5.985%; GUG vs AUG (%) [1, 6]: 2.005%; average CUG and GUG relative to DMSO [1]: 1.433; CUG Average [1]: 9.471; GUG Average [1]: 3.46; NUG (Final data, Fig. 1E) [1]: 1.433; GUG vs AUG data (%) ([1]; compound at 20uM): 2.91% and 4.78% and 2.69%; GUG vs AUG (%) Average ([1]; compound at 20uM): 3.46%
4 | CN(C)CC1CCn2cc(c3ccccc32)C2=C(C(=O)NC2=O)c2cn(c3ccccc23)CCO1 (centres unmarked) [1Ai-5662] | 0.8742 and 0.9398 | 0.8798 and 0.8003 | 0.8074 and 0.8109 | 0.7089 and 0.7163 | 0.4859 and 0.6001 | 0.4269 and 0.4563 | 0.2954 and 0.3164 | 0.164 and 0.1518 | 0.1171 and 0.08567 | 0.839 and 0.8682 and 1 | 1.068 | 0.9026 and 0.9044 and 1.056 | 0.8689 and 0.9922 and 1.016 | 0.8614 and 0.9638 and 0.988 | 0.8277 and 0.845 and 0.9679 | 0.6816 and 0.8424 and 0.9197 | 0.5918 and 0.6641 and 0.7952 | 0.4307 and 0.4574 and 0.6064 | 0.2846 and 0.3101 and 0.4458 | 5.24 | fluorescence ratio, eIF1A Δ CTT (eIF1A without CTT; [7]): 0.8855 and 0.8821; IC50 (eIF1A without CTT; [2]): 12.4 µM; IC50 (eIF1A without CTT; [3]): 12.4 µM; fluorescence ratio, eIF1A Δ NTT (eIF1A without NTT; [7]): 0.9101 and 0.8837; IC50 (eIF1A without NTT; [4]): 37.9 µM; IC50 (eIF1A without NTT; [5]): 37.9 µM; average CUG and GUG relative to DMSO [1]: 1.162; CUG Average [1]: 7.645; GUG Average [1]: 2.835; NUG (Final data, Fig. 1E) [1]: 1.162; GUG vs AUG data (%) ([1]; compound at 10uM): 1.99% and 4.83% and 1.69%; GUG vs AUG (%) Average ([1]; compound at 10uM): 2.83%
5 | CCOc1cc(C(=O)Nc2ccc(Cl)c(-c3nc4ccccc4[nH]3)c2)cc(OCC)c1OCC [1Ai-5677] | 0.9518 and 1.125 | 1.031 and 1.16 | 1.066 and 1.079 | 1.073 and 1.131 | 1.007 and 1.089 | 1.119 and 1.152 | 1.196 and 1.27 | 1.276 and 1.31 | 1.365 and 1.556 | 1 | 1 and 0.9156 | 1.054 and 0.8819 | 0.997 and 1.025 | 0.8973 and 1.017 | 0.994 and 0.865 | 1.091 and 0.9072 | 1.205 and 0.9494 | 1.39 and 0.8945 | 1.882 and 1.228 | 7.022 | fluorescence ratio, eIF1A Δ CTT (eIF1A without CTT; 1Ai conc. 0.5 uM): 0.9965 and 1.042; IC50 (eIF1A without CTT; [2]): 79.9 µM; IC50 (eIF1A without CTT; [3]): 79.9 µM; binding to NTT-truncated eIF1A (eIF1A without NTT): significantly decreased; IC50 (eIF1A without NTT; [4]): 109 µM; IC50 (eIF1A without NTT; [5]): 109 µM; average CUG and GUG relative to DMSO [1]: 1.557; CUG Average [1]: 10.2182; GUG Average [1]: 3.825; NUG (Final data, Fig. 1E) [1]: 1.557; GUG vs AUG data (%) ([1]; compound at 20uM): 5.33% and 3.23% and 3.12% and 3.62%; GUG vs AUG (%) Average ([1]; compound at 20uM): 3.82%
